The values below come from US10324085B2, “Systems and methods for the monitoring of protein complex formation in cells” (priority 2013, dated 2019).

Assay [1] addresses T1, ERα-ERα (Homo sapiens, UniProt P03372).
T1 construct: expressed in transfected cells; host or cells: HEK293
The experiment in a line: cell-based.
Target sequence in this assay (P03372 whole entry): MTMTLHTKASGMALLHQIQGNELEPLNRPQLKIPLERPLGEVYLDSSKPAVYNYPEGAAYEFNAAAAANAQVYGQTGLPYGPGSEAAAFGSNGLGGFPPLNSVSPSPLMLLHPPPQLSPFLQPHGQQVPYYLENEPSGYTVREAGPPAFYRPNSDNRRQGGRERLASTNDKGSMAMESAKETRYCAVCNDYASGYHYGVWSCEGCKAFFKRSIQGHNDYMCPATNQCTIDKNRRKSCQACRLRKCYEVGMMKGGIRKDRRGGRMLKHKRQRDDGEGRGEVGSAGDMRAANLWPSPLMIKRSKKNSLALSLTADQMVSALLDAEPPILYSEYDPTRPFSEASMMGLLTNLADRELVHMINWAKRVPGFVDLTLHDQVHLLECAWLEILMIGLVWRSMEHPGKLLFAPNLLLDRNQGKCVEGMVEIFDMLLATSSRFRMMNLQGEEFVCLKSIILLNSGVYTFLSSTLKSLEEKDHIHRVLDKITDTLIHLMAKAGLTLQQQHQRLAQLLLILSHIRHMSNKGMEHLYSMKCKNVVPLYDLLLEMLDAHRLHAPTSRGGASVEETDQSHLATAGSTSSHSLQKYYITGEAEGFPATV

In assay [2] the target is T2, RXRγ-RARα-CoRNBox complex (Homo sapiens, UniProt P10276).
T2 construct: expressed in transfected cells; host or cells: HEK293
T2 sequence (P10276 1-462): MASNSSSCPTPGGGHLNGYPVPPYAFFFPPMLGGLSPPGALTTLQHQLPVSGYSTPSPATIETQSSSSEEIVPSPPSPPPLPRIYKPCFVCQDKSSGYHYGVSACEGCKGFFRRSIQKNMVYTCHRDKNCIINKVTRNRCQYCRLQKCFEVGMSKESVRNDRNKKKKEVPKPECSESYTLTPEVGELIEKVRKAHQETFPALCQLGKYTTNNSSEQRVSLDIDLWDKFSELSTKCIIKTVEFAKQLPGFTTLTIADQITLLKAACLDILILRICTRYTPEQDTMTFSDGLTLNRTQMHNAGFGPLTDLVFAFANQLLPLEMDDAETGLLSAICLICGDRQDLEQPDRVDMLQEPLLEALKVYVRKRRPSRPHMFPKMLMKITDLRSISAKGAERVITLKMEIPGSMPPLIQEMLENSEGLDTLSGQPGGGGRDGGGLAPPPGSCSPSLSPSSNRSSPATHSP
T2 sequence (P48443 1-463 partner): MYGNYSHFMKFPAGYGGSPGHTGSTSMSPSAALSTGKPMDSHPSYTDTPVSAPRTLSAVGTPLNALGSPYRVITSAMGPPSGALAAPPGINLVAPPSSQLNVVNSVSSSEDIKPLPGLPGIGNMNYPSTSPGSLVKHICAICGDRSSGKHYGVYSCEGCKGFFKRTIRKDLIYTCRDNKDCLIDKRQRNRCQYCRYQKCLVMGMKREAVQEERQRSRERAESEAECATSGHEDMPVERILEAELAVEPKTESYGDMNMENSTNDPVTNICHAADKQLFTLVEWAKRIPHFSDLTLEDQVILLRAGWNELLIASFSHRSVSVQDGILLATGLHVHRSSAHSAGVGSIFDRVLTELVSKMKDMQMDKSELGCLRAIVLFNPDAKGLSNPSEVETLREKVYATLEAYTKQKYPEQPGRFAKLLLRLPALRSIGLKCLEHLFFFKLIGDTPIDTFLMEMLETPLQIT
Kind of assay: BRETFect RXRγ-RARα-CoRNBox ternary complex in HEK293 cells. Format: cell-based. The note with it: 1 μM, 40 min.
Experimental: Cells were treated for 40 min with vehicle DMSO (0) or all-trans retinoic acid (ATRA) before coelenterazine H addition and BRET measurement.

The target in the next assay is ERβ (Homo sapiens, UniProt Q92731).
The target in assay [3] is T1, ERα-ERα. The experiment in a line: cell-based. The note with it: BRETFect titration curves, HEK293 cells, average of three biological replicates; read-out: EC50 (nM), recruitment of SRC1-RID, ERα-ERα.
Target sequence in this assay (P03372 whole entry): as the sequence (P03372 whole entry) above
Target sequence in this assay (Q15788 626-753, further chain): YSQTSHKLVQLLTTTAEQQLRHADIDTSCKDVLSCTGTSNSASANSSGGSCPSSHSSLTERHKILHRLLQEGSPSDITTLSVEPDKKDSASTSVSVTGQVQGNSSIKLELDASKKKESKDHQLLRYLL
For assay [4], the target named is T3, ERα-ERβ (Homo sapiens, UniProt P03372+Q92731).
T3 construct: expressed in transfected cells; host or cells: HEK293
Kind of assay: cell-based. The note with it: BRETFect titration curves, HEK293 cells, average of three biological replicates; read-out: EC50 (nM), recruitment of SRC1-RID, ERα-ERβ.
Target sequence in this assay (Q15788 626-753): as the sequence (Q15788 626-753, further chain) above
Target sequence in this assay (P03372 whole entry): as the sequence (P03372 whole entry) above
Target sequence in this assay (Q92731 whole entry): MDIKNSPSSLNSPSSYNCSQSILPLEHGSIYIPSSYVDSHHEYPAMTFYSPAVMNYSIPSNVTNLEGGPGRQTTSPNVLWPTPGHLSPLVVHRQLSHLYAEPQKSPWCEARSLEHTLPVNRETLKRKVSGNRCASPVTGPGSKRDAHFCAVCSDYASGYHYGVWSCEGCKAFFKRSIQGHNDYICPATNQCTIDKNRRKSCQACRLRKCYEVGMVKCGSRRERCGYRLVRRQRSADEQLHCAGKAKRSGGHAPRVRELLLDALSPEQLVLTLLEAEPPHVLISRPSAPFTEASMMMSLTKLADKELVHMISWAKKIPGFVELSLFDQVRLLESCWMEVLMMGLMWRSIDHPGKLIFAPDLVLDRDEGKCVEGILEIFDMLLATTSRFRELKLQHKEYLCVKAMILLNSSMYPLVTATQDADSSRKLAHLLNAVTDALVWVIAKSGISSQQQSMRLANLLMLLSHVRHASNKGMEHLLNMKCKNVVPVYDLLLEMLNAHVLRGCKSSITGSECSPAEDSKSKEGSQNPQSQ

The target in assay [5] is T3, ERα-ERβ. Kind of assay: cell-based.
Target sequence in this assay (Q92731 whole entry): as above
Target sequence in this assay (P03372 whole entry): as the sequence (P03372 whole entry) above
Target sequence in this assay (as listed by the source): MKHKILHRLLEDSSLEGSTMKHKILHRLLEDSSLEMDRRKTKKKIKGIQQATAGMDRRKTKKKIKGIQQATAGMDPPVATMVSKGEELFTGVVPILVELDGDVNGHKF

As a reminder, the EC50 is the concentration giving half of the maximal effect.

Where “and” joins values, the source holds several entries; their conditions need not be identical. Equal values may be shown once. Read-outs that look alike come from different tables or passages of the source.

ERβ, sequence (Q92731 whole entry, species assumed): as the sequence (Q92731 whole entry) above

4-hydroxytamoxifen [OHT]: the “BRETFect signal (delta BRET), coactivator motif recruitment to ERα dimers” value on ERα-ERα [1] is “suppresses coactivator motif recruitment”.
On to `CC1=C(/C=C/C(C)=C/C=C/C(C)=C/C(=O)O)C(C)(C)CCC1` [ATRA, all-trans retinoic acid], for which the “RXRγ-RARα-CoRNBox ternary complex, net BRET” value in assay [2] is reported as “the ternary complex is disassembled”.
As to `C[C@]12CC[C@@H]3c4ccc(O)cc4CC[C@H]3[C@@H]1CC[C@@H]2O` [E2, 17-beta-Estradiol], the “recruitment of CoApep-Venus to ERβ, BRET” value on ERβ is given as “E2-induced”.
Turning to `CCCc1c(-c2ccc(O)cc2)nn(-c2ccc(O)cc2)c1-c1ccc(O)cc1` [PPT, propylpyrazole triol], the EC50 on ERα-ERα [1] (BRETFect titration curves, HEK293 cells, average of three biological replicates, read-out: EC50 (nM), recruitment of the coactivator motif peptide, ERα-ERα) was 0.5 nM and 0.547 nM; on ERα-ERα [3], 0.968 nM; at ERα-ERβ [4] it was 25.1 nM; at ERα-ERβ [5] (BRETFect titration curves, HEK293 cells, average of three biological replicates, read-out: EC50 (nM), recruitment of the coactivator motif peptide, ERα-ERβ), 28 nM and 28.4 nM. At ERα-ERβ [5] (relative to BRETmax observed with E2), the “% of the BRETmax for CoApep recruitment by ERα-ERβ heterodimer” value was found to be 50%.
